Measured values taken from patent US20210024490A1, “METHOD FOR THE PREPARATION OF THE METABOLITES OF (4S)- AND (4R)-4-(4-CYANO-2-METHOXYPHENYL)-5-ETHOXY-2,8-DIMETHYL-1,4-DIHYDRO-1,6-NAPHTHYRIDINE-3-CARBOXAMIDE AND THE USE THEREOF” (Bayer Pharma Aktiengesellschaft, priority 2015, published 2021).

Tests used:
[1] = target: T1, human mineralocorticoid receptor (MR) (Homo sapiens, UniProt P08235); experiment: Cellular in vitro assay to determine the inhibitory MR activity (GAL4-steroid hormone receptor chimera, luciferase reporter, CHO K1 cells); assay type: cell-based; conditions: antagonism of aldosterone-stimulated GAL4-MR chimera
T1 construct: expressed in transfected cells; host or cells: CHO K1 (Chinese hamster ovary), stably transfected
T1 sequence (P08235 734-984 limits assumed): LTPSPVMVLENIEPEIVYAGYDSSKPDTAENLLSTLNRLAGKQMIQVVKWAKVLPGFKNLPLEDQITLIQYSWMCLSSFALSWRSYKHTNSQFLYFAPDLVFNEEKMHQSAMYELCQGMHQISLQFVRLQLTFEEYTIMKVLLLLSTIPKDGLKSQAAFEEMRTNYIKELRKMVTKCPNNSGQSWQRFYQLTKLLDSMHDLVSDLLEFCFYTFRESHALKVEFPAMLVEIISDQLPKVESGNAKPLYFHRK
From the text: B-1. Cellular In Vitro Assay to Determine the Inhibitory MR Activity and MR Selectivity Compared with Other Steroid Hormone Receptors
Antagonists of the human mineralocorticoid receptor (MR) are identified, and the efficacy of the compounds described herein is quantified with the aid of a recombinant cell line. The cell is originally derived from a hamster ovary epithelial cell (Chinese Hamster Ovary, CHO K1, ATCC: American Type Culture Collection, VA 20108, USA).
An established chimera system in which the ligand-binding domains of human steroid hormone receptors are fused to the DNA-binding domain of the yeast transcription factor GAL4 is used in this CHO K1 cell line. The GAL4-steroid hormone receptor chimeras produced in this way are cotransfected and stably expressed with a reporter construct in the CHO cells.
To generate the GAL4-steroid hormone receptor chimeras, the GAL4 DNA-binding domain (amino acids 1-147) from the vector pFC2dbd (from Stratagene) is cloned with the PCR-amplified ligand-binding domains of the mineralocorticoid receptor (MR, amino acids 734-985), of the glucocorticoid receptor (GR, amino acids 443-777), of the progesterone receptor (PR, amino acids 680-933) and of the androgen receptor (AR, amino acids 667-919) into the vector pIRES2 (from Clontech). […]
The MR cells are plated out in medium (Optimem, 2.5% FCS, 2 mM glutamine, 10 mM HEPES) in 96-well (or 384- or 1536-well) microliter plates the day before the assay, and are kept in a cell incubator (96% air humidity, 5% v/v CO2, 37° C.). […] After a further incubation time of 5 to 6 hours, the luciferase activity is measured with the aid of a video camera. The relative light units measured give a sigmoidal stimulation curve as a function of the substance concentration. The IC50 values (in mol) are calculated with the aid of the computer program GraphPad PRISM (Version 3.02).

[2] = design: species or system humans; conditions: dog, rat, mouse, human, in vivo
From the text: For pharmacokinetic measurements, standards of very high quality had to be prepared in order to be able to carry out reliable quantification. From the structural elucidation of the metabolites (via MS of the serum of various animal species and humans) obtained after administration of (4 S)-4-(4-cyano-2-methoxyphenyl)-5-ethoxy-2,8-dimethyl-1,4-dihydro-1,6-naphthyridine-3-carboxamide of the formula 4S (I), the following 6 main metabolites were found (the absolute stereochemistry of the atropisomers can be assigned according to the Cahn-Ingold-Prelog convention and is specified in parentheses):
If the R enantiomer 4R (I) is used, […]

Structure (SMILES) | IC50 [1] | main metabolites formed [2]
CCOc1ncc(C)c2nc(C)c(C(N)=O)c(-c3ccc(C#N)cc3OC)c12 (single isomer, unassigned) [M1a (S)] | 9.33 µM | 
CCOc1ncc(C)c2nc(C)c(C(N)=O)c(-c3ccc(C#N)cc3OC)c12 (single isomer, unassigned) [M1b (R)] | > 10 µM | 
CCOc1ncc(C)c2c1[C@@H](c1ccc(C#N)cc1OC)C(C(N)=O)=C(C)N2 [4R (I), (4R)-4-(4-cyano-2-methoxyphenyl)-5-ethoxy-2,8-dimethyl-1,4-dihydro-1,6-naphthyridine-3-carboxamide] |  | the metabolites of the b series are principally formed, i.e. M1b (R), M2b (R) and M3b (R)
CCOc1ncc(C)c2c1[C@H](c1ccc(C#N)cc1OC)C(C(N)=O)=C(C)N2 [Compound of the formula (I), (4S)-4-(4-cyano-2-methoxyphenyl)-5-ethoxy-2,8-dimethyl-1,4-dihydro-1,6-naphthyridine-3-carboxamide] | 0.0277 µM | metabolized mainly to M1a (S) and the subsequent metabolites M2a (S) and M3a (S)
